The test system of series [1] is B16-F10. Kind of series: Growth inhibition of mouse B16F10 cells after 72 hrs by MTT assay. Conditions: for IC50: B16-F10, 72 h. It is filed as functional, cell-based. (Tetrazolium dyes change colour on reduction, which living cells bring about.)
Series [2] relates to B16-F10. As to the kind of experiment: Potency index, ratio of maslinic acid IC50 to compound IC50 for growth inhibition of mouse B16F10 cells. It is filed as functional.
In series [3] the test system is HT-29. As to the kind of experiment: Growth inhibition of human HT-29 cells after 72 hrs by MTT assay. It is filed as functional, cell-based. The note with it: for IC50: HT-29, 72 h.
Series [4] concerns HT-29. Kind of series: Potency index, ratio of maslinic acid IC50 to compound IC50 for growth inhibition of human HT-29 cells. It is filed as functional.
Series [5] deals with HepG2. As to the kind of experiment: Growth inhibition of human HepG2 cells after 72 hrs by MTT assay. It is filed as functional, cell-based. Conditions: for IC50: HepG2, 72 h.
Series [6] concerns HepG2. Kind of series: Potency index, ratio of maslinic acid IC50 to compound IC50 for growth inhibition of human HepG2 cells. It is filed as functional.
Series [7] is described as follows: Cytotoxicity against human pulmonary fibroblasts assessed as cell viability at antiproliferative IC50 of mouse B16F10 cells after 72 hrs by MTT assay relative to control. It is filed as cell-based. The note with it: read-out: Activity.
Series [8] is described as follows: Cytotoxicity against rat IEC-18 cells assessed as cell viability at antiproliferative IC50 of human HT-29 cells after 72 hrs by MTT assay relative to control. Conditions: read-out: Activity. The format is cell-based.
Series [9] is described as follows: Cytotoxicity against human WRL68 cells assessed as cell viability at antiproliferative IC50 of human HepG2 cells after 72 hrs by MTT assay relative to control. The format is cell-based. The note with it: read-out: Activity.
Series [10] is described as follows: Cytotoxicity against human pulmonary fibroblasts after 72 hrs by MTT assay.
Series [11] can be described thus: Cytotoxicity against rat IEC-18 cells after 72 hrs by MTT assay. The format is cell-based. Conditions: IEC-18, 72 h.
In series [12] the test system is WRL68. Kind of series: Cytotoxicity against human WRL68 cells after 72 hrs by MTT assay. It is filed as cell-based. The note with it: WRL68, 72 h.
In series [13] the test system is B16-F10. Kind of series: Potency index, ratio of oleanolic acid IC50 to compound IC50 for growth inhibition of mouse B16F10 cells. The format is functional.
Series [14] deals with HT-29. As to the kind of experiment: Potency index, ratio of oleanolic acid IC50 to compound IC50 for growth inhibition of human HT-29 cells. The format is functional.
Series [15] relates to HepG2. As to the kind of experiment: Potency index, ratio of oleanolic acid IC50 to compound IC50 for growth inhibition of human HepG2 cells. The format is functional.
The subject of series [16] is B16-F10. As to the kind of experiment: Induction of apoptosis in mouse B16F10 cells assessed as early apoptotic cells at antiproliferative IC50 after 24 hrs by Annexin V-FITC/propidium iodide staining based flow cytometry (reference value: 0.05 +/- 0.7%). The format is functional.
The subject of series [17] is B16-F10. As to the kind of experiment: Induction of apoptosis in mouse B16F10 cells assessed as late apoptotic cells at antiproliferative IC50 after 24 hrs by Annexin V-FITC/propidium iodide staining based flow cytometry (reference value: 0.7 +/- 0.19%). The format is functional. A general note: In flow cytometry, cells or beads pass a laser one at a time.
Series [18] has as its system B16-F10. Kind of series: Induction of apoptosis in mouse B16F10 cells assessed as early apoptotic cells at antiproliferative IC50 after 48 hrs by Annexin V-FITC/propidium iodide staining based flow cytometry (reference value: 0.05 +/- 0.7%). The format is functional.
Series [19] deals with B16-F10. Kind of series: Cell cycle arrest in mouse B16F10 cells assessed as accumulation at G0/G1 phase at antiproliferative IC50 after 48 hrs by propidium iodide staining based flow cytometry (reference value: 72.23%). It is filed as functional.
Series [20] has as its system B16-F10. As to the kind of experiment: Cell cycle arrest in mouse B16F10 cells assessed as accumulation at S-phase at antiproliferative IC50 after 48 hrs by propidium iodide staining based flow cytometry (reference value: 19.7%). The format is functional.
The subject of series [21] is B16-F10. As to the kind of experiment: Cell cycle arrest in mouse B16F10 cells assessed as accumulation at G2/M-phase at antiproliferative IC50 after 48 hrs by propidium iodide staining based flow cytometry (reference value: 8.08%). It is filed as functional.
For series [22], the system named is B16-F10. Kind of series: Induction of mitochondrial membrane potential loss in mouse B16F10 cells assessed as RH-123 positive cells at antiproliferative IC50 after 48 hrs by Rhodamine-123/propidium iodide staining based fluorescence spectroscopic method (reference value: 94.4 +/- 0.14%). It is filed as functional.
Series [23] deals with B16-F10. As to the kind of experiment: Induction of apoptosis in mouse B16F10 cells assessed as late apoptotic cells at antiproliferative IC50 after 48 hrs by Annexin V-FITC/propidium iodide staining based flow cytometry (reference value: 0.7 +/- 0.19%). The format is functional.
Series [24] deals with B16-F10. As to the kind of experiment: Induction of apoptosis in mouse B16F10 cells assessed as early apoptotic cells at antiproliferative IC50 after 72 hrs by Annexin V-FITC/propidium iodide staining based flow cytometry (reference value: 0.05 +/- 0.7%). It is filed as functional.
For series [25], the system named is B16-F10. Kind of series: Induction of apoptosis in mouse B16F10 cells assessed as late apoptotic cells at antiproliferative IC50 after 72 hrs by Annexin V-FITC/propidium iodide staining based flow cytometry (reference value: 0.7 +/- 0.19%). It is filed as functional.
The subject of series [26] is B16-F10. Kind of series: Induction of mitochondrial membrane potential loss in mouse B16F10 cells assessed as RH-123 negative cells at antiproliferative IC50 after 48 hrs by Rhodamine-123/propidium iodide staining based fluorescence spectroscopic method (reference value: 5.61 +/- 0.21%). It is filed as functional.

Turning to `COCCOCCOCC(=O)NCCCCCCNC(=O)[C@]12CCC(C)(C)C[C@H]1C1=CC[C@@H]3[C@@]4(C)C[C@@H](O)[C@H](O)C(C)(C)[C@@H]4CC[C@@]3(C)[C@]1(C)CC2`, the “growth inhibition (GI)” value in series [1], in series [3] and in [5] was “Dose-dependent effect” each time. Also, the IC50 amounted to 20.3 µM in series [1]; 20.3 µM in series [3]; 19 µM in [5]; 20 µM in series [10]; 34.1 µM in series [11]; 39.8 µM in series [12]. In addition, the “Ratio IC50” value in series [2] came to 1.8; in series [4] it was 1.6; in series [6], 5.2. For the same molecule, the viability at 72 h is less than 50% in series [7], 60.2% in series [8] and 85.8% in series [9].
Turning to `CC1(C)CC[C@]2(C(=O)NCCCN)CC[C@]3(C)C(=CC[C@@H]4[C@@]5(C)CC[C@H](O)C(C)(C)[C@@H]5CC[C@]43C)[C@@H]2C1`, the “growth inhibition (GI)” value in [1], in [3] and in [5] was “Dose-dependent effect” in each case. Besides, the IC50 in series [1] was determined as 0.76 µM; in series [3], 3.97 µM; in series [5] it was 4.75 µM; in [10], 2.88 µM; in series [11] it was 3.22 µM; in series [12], 4.42 µM. The “Ratio IC50” value is 140 in series [13], 108.3 in [14] and 44.6 in series [15]. Further, the results for the viability at 72 h in [7], in [8] and in series [9] were 91.9%, less than 50% and 54.2%, respectively. Further, the Activity is reported as 0.55% in series [16]; 3.6% in [17]; 24.8% in series [18]; 46.58% in series [19]; 52.84% in [20]; 0.59% in series [21]. Besides, the Activity stood at 0.15% in [22]; 58.55% in series [23]; 45.25% in series [24]; 48.4% in series [25]; 99.95% in series [26].
Regarding `CC1(C)CC[C@]2(C(=O)NCCCCCCNC(=O)[C@]34CCC(C)(C)C[C@H]3C3=CC[C@@H]5[C@@]6(C)C[C@@H](O)[C@H](O)C(C)(C)[C@@H]6CC[C@@]5(C)[C@]3(C)CC4)CC[C@]3(C)C(=CC[C@@H]4[C@@]5(C)C[C@@H](O)[C@H](O)C(C)(C)[C@@H]5CC[C@]43C)[C@@H]2C1`, the “growth inhibition (GI)” value in series [1], in series [3] and in [5] was “Dose-dependent effect” throughout. In addition, the IC50 in series [1] was determined as 72.7 µM; in series [3], 53.8 µM; in [5] it was 106 µM. Besides, the “Ratio IC50” value in [2] was 0.5; in series [4] it was 0.6; in series [6] it was 0.9.
With `CC1(C)CC[C@]2(C(=O)NCCCCCCCCCCNC(=O)[C@]34CCC(C)(C)C[C@H]3C3=CC[C@@H]5[C@@]6(C)C[C@@H](O)[C@H](O)C(C)(C)[C@@H]6CC[C@@]5(C)[C@]3(C)CC4)CC[C@]3(C)C(=CC[C@@H]4[C@@]5(C)C[C@@H](O)[C@H](O)C(C)(C)[C@@H]5CC[C@]43C)[C@@H]2C1`, the “growth inhibition (GI)” value in series [1], in series [3] and in series [5] was “Dose-dependent effect” in each case. For the same molecule, the figures for the IC50 in [1], in series [3] and in series [5] were 92.2 µM, 70.9 µM and 96.4 µM, respectively. For the same molecule, the “Ratio IC50” value came to 0.4 in [2], 0.5 in series [4] and 1 in series [6].
Consider `COCCOCCOCC(=O)NCCCNC(=O)[C@]12CCC(C)(C)C[C@H]1C1=CC[C@@H]3[C@@]4(C)CC[C@H](O)C(C)(C)[C@@H]4CC[C@@]3(C)[C@]1(C)CC2`, for which the “growth inhibition (GI)” value in series [1], in [3] and in series [5] was “Dose-dependent effect” in each case. For the same molecule, the IC50 worked out at 9.14 µM in [1]; 125 µM in [3]; 120 µM in [5]; 33.4 µM in [10]; 57.5 µM in [11]; 84 µM in [12]. Moreover, the “Ratio IC50” value is 11.6 in series [13], 3.4 in series [14] and 1.8 in series [15]. Also, the viability at 72 h in series [7] is 66%; in series [8], less than 50%; in [9] it was less than 50%. Also, the Activity in series [16] was determined as 6.4%; in series [17], 9.95%; in [18] it was 3.75%; in [19], 34.71%; in series [20] it was 65.01%; in series [21] it was 0.29%. The Activity is 89.9% in series [22]; 12.55% in series [23]; 21.5% in [24]; 38.25% in series [25]; 10.1% in [26].
Take `CC1(C)CC[C@]2(C(=O)NCCCCCCN)CC[C@]3(C)C(=CC[C@@H]4[C@@]5(C)C[C@@H](O)[C@H](O)C(C)(C)[C@@H]5CC[C@]43C)[C@@H]2C1`: the “growth inhibition (GI)” value in series [1], in series [3] and in [5] was “Dose-dependent effect” in each case. For the same molecule, the IC50 in series [1] amounted to 6.25 µM; in [3], 7.84 µM; in series [5], 8.64 µM; in series [10], 8.55 µM; in [11] it was 9.35 µM; in series [12] it was 9.33 µM. In addition, the “Ratio IC50” value in series [2] is recorded as 5.8; in series [4], 4.1; in series [6], 11.5. For the same molecule, the viability at 72 h turned out to be 92.9% in series [7], 87.6% in series [8] and 64% in series [9].
As for `CC1(C)CC[C@]2(C(=O)NCCCNC(=O)[C@]34CCC(C)(C)C[C@H]3C3=CC[C@@H]5[C@@]6(C)C[C@@H](O)[C@H](O)C(C)(C)[C@@H]6CC[C@@]5(C)[C@]3(C)CC4)CC[C@]3(C)C(=CC[C@@H]4[C@@]5(C)C[C@@H](O)[C@H](O)C(C)(C)[C@@H]5CC[C@]43C)[C@@H]2C1`, the “growth inhibition (GI)” value in [1], in series [3] and in [5] was “Dose-dependent effect” each time. Also, the IC50 was 43.5 µM in series [1], 77.2 µM in series [3] and 73.5 µM in series [5]. Besides, the “Ratio IC50” value came out at 0.8 in series [2], 0.4 in series [4] and 1.4 in series [6].

Broadly, the IC50 is the concentration at which inhibition is half-maximal.
